Reference: ChEMBL document CHEMBL5329200, “Structure-guided design and synthesis of ATP-competitive N-acyl-substituted sulfamide d-alanine-d-alanine ligase inhibitors” (Bioorg Med Chem, 2023)

How the values were obtained:
Staphylococcus aureus = assay: Inhibition of C-terminal hexahistidine-tagged recombinant Staphylococcus aureus Ddl expressed in Escherichia coli BL21(DE3) assessed as remaining activity using D-Ala as substrate at 250 uM incubated for 5 mins in presence of ATP by antimony phosphomolybdate assay (reference value: 100+/-2%)
[1] = Inhibition of C-terminal hexahistidine-tagged recombinant Staphylococcus aureus Ddl expressed in Escherichia coli BL21(DE3) using D-Ala as substrate in presence of ATP by PK/LDH couples assay

Structure (SMILES) | Activity (Staphylococcus aureus) [%] | IC50 [1] [µM]
Nc1ncnc2c1ncn2[C@@H]1O[C@H](CCNS(N)(=O)=O)[C@@H](O)[C@H]1O | 72 | 1600
CC1CN(C(=O)OC(C)(C)C)CCN1CCOC(=O)NS(=O)(=O)NCC[C@H]1O[C@@H](n2cnc3c(N)ncnc32)[C@H](O)[C@@H]1O (stereo partly drawn) | 95 | –
Nc1ncnc2c1ncn2[C@@H]1O[C@H](CCNS(=O)(=O)NC(=O)OCCCC2CCCC2)[C@@H](O)[C@H]1O | 79 | > 2500
CC1(C)O[C@@H]2[C@H](O1)[C@@H](CCN)O[C@H]2n1cnc2c(N)ncnc21 | 82 | –
CC(C)(C)OC(=O)NS(=O)(=O)NCC[C@H]1O[C@@H](n2cnc3c(N)ncnc32)[C@@H]2OC(C)(C)O[C@@H]21 | 91 | –
CC(C)(C)OC(=O)N[C@@H]1CON(CCO)C1=O | 90 | –
CC1(C)O[C@@H]2[C@H](O1)[C@@H](CCNS(=O)(=O)NC(=O)OCCc1ccc(Cl)c(Cl)c1)O[C@H]2n1cnc2c(N)ncnc21 | 89 | –
N[C@@H]1CONC1=O [CYCLOSERINE] | 35 | 100
Nc1ncnc2c1ncn2CCCCNS(=O)(=O)NC(=O)OCCc1ccc(Cl)c(Cl)c1 | 110 | –
NCC[C@H]1O[C@@H](n2cnc3c(N)ncnc32)[C@H](O)[C@@H]1O | 63 | 2200

Second part, the molecule after the results:

Activity (Staphylococcus aureus) [%] | IC50 [1] [µM] | Structure (SMILES)
85 | – | Nc1ncnc2c1ncn2[C@@H]1O[C@H](CCNS(=O)(=O)NC(=O)OCCc2ccc(Cl)c(Cl)c2)[C@@H](O)[C@H]1O
80 | > 2500 | Nc1ncnc2c1ncn2[C@@H]1O[C@H](CCNS(=O)(=O)NC(=O)OCCc2ccccc2)[C@@H](O)[C@H]1O
70 | 1700 | Nc1ncnc2c1ncn2[C@@H]1O[C@H](CCNS(=O)(=O)NC(=O)OCCN2OC[C@@H](N)C2=O)[C@@H](O)[C@H]1O
87 | – | Nc1ncnc2c1ncn2[C@@H]1O[C@H](CCNS(=O)(=O)NC(=O)OCCc2ccccc2Cl)[C@@H](O)[C@H]1O
91 | – | Nc1ncnc2c1ncn2[C@@H]1O[C@H](CCNS(=O)(=O)NC(=O)OCCc2cccc(Cl)c2)[C@@H](O)[C@H]1O
82 | – | Cc1ccc(CCCOC(=O)NS(=O)(=O)NCC[C@H]2O[C@@H](n3cnc4c(N)ncnc43)[C@H](O)[C@@H]2O)cc1
89 | – | COc1ccc(CCOC(=O)NS(=O)(=O)NCC[C@H]2O[C@@H](n3cnc4c(N)ncnc43)[C@H](O)[C@@H]2O)cc1
96 | – | Nc1ncnc2c1ncn2[C@@H]1O[C@H](CCNS(=O)(=O)NC(=O)OCCCc2ccc(Cl)cc2)[C@@H](O)[C@H]1O
84 | – | Nc1ncnc2c1ncn2[C@@H]1O[C@H](CCNS(=O)(=O)NC(=O)OCCc2ccccc2F)[C@@H](O)[C@H]1O
90 | – | COc1ccc(CCCCOC(=O)NS(=O)(=O)NCC[C@H]2O[C@@H](n3cnc4c(N)ncnc43)[C@H](O)[C@@H]2O)cc1
76 | > 2500 | CC1CNCCN1CCOC(=O)NS(=O)(=O)NCC[C@H]1O[C@@H](n2cnc3c(N)ncnc32)[C@H](O)[C@@H]1O (stereo partly drawn)
